Reference: article PMC7436000, “The Spectrum of Design Solutions for Improving the Activity-Selectivity Product of Peptide Antibiotics against Multidrug-Resistant Bacteria and Prostate Cancer PC-3 Cells” (Molecules, 2020)
Values after ≈ are worked out from the molar mass of the structure shown. Read-outs that look alike come from different tables or passages of the source. Peptide text beside a SMILES is read from it.

Columns and labels:
P. aerug. clin. isolate = assay type: cell-based, Pseudomonas aeruginosa
Text: (§1) The American Type Culture Collection (ATCC, Rockville, MD, USA) strains and Escherichia coli MG1655 were used as standard bacterial strains. Gram-negative ATCC strains consisted of Escherichia coli (ATCC 25922), Pseudomonas aeruginosa (ATCC 27853), Acinetobacter baumannii (ATCC 19606), and Klebsiella pneumoniae (ATCC 13883). The only Gram-positive standard strain chosen for testing was Staphylococcus aureus (ATCC 29213). Clinical isolates with confirmed multidrug-resistance phenotype were obtained from different wards of the University Hospital Center, Split, Croatia. We described their origin, antibiograms, and resistance phenotype previously. In the same paper, we described the procedure for antimicrobial susceptibility testing on planktonic cells, using the microdilution method in 96-well microtiter plates.
(§2) Briefly, cells were grown on agar plates and a single colony was sampled to generate a liquid culture (LC) grown overnight at 37 °C. The culture was sampled, resuspended in fresh medium, and allowed to grow at 37 °C, until reaching the mid-exponential phase. Lysogeny broth (LB) was used in the case of the E. coli MG1655 cells. Mueller Hinton (MH) medium was used for all other bacterial strains. Serial 2-fold dilutions of the peptide (64 μM to 0.0625 μM) were prepared from peptide stock solution in PBS, and added to a final load of 5 × 10^5 CFU/mL in 100 μL total volume of medium per well in a 96-well plate (Brand 781660). Bacterial cultures were incubated with peptides for 18 h to 24 h at 37 °C. The minimum inhibitory concentration (MIC) was defined as the lowest concentration of the peptide, at which no visible bacterial growth was observed. The MIC for each of the tested peptides was determined in at least three individual assays under the same laboratory conditions. […] At the end of the incubation period for MIC or MBC, the determination of the OD600 was analyzed.

S. aureus clin. isolate = assay type: cell-based, Staphylococcus aureus
Text: as §1, §2

human erythrocytes = test: Hemolysis of human erythrocytes; assay type: cell-based; conditions: for HC10: concentration causing 10% hemolysis, 0.2% Triton = 100%; for HC10 / HC20 / HC50: 0.5% RBC in PBS, 1 h, 37 °C, absorbance 450 nm, triplicate; for HC20: concentration causing 20% hemolysis; for HC50: concentration causing 50% hemolysis
Experimental: Fresh blood was obtained from a healthy donor. Blood was stored in a tube containing EDTA at 4 °C and used within 24 h. Before use, 1 mL of blood was centrifuged (400× g, 10 min), and the supernatant was discarded. Moreover, 500 μL cold PBS with EDTA (1 mM) was added, mixed and centrifuged. The supernatant was discarded. Furthermore, 500 μL of cold PBS with EDTA (1 mM) was added, from which a dilution of 1% blood was made. Peptides were prepared in PBS at a 2 × concentration in 100 µL. […] The suspension was incubated at 37 °C for 1 h and centrifuged at 10,000× g for 5 min. […] After centrifugation, the supernatant was added to a 96-well microtiter plate (150–180 μL), and the absorbance was measured at 450 nm, using EnSight Multimode Plate Reader (PerkinElmer, Inc.). Each measurement was done in triplicate. […] We opted to also include the extrapolated HC50 in our results, to permit comparisons with older toxicity results. However, the HC20 measurements were used for ranking the peptides according to their selectivity and overall performance (Figure 1 and Figure 2 and Table 2).

K. pneum. clin. isolate = assay type: cell-based, Klebsiella pneumoniae
Text: as §1, §2

Escherichia coli MG1655 = assay type: cell-based
Text: as §1, §2

[1] = tested on: Staphylococcus aureus (ATCC 29213); assay type: cell-based
Text: as §1, §2

[2] = tested on: Escherichia coli (ATCC 25922); assay type: cell-based
Text: as §1, §2

[3] = tested on: Klebsiella pneumoniae (ATCC 13883); assay type: cell-based
Text: as §1, §2

[4] = tested on: Pseudomonas aeruginosa (ATCC 27853); assay type: cell-based
Text: as §1, §2

[5] = tested on: Acinetobacter baumannii (ATCC 19606); assay type: cell-based
Text: as §1, §2

[6] = tested on: human primary dermal fibroblasts; assay type: cell-based
Experimental: (§3) Prostate cancer cells were donated by the University of Split, School of Medicine. Cells were cultured in RMPI-1640 medium, supplemented with 10% FBS, 1% Penicillin-Streptomycin, and 1% L-Glutamine. Human dermal fibroblasts were purchased from Biopredic (France) and cultured in DMEM medium, supplemented with 10% FBS and 1% Penicillin-Streptomycin. All cell lines were maintained in a humidified incubator with 5% CO2 at 37 °C. Cells were detached using the trypsin-EDTA solution and sub-cultured (7000 cells/well) in a 96-well plate overnight. Peptide stock solutions were prepared in PBS, and cancer cells were treated with 2-fold serial dilutions for 24 h at 37 °C, with 5% CO2. The toxicity of 6 selected peptides was assessed by a standard MTT assay. Treated cells were incubated with MTT working solution (0.5 mg/mL Thiazolyl Blue Tetrazolium Bromide) for 4 h at 37 °C with 5% CO2. Precipitated formazan was dissolved in 200 µL DMSO and absorbance was measured at 595 nm with EnSight Multimode Plate Reader (PerkinElmer, Inc.)

A. baum. clin. isolate = assay type: cell-based, Acinetobacter baumannii
Text: as §1, §2

[7] = tested on: PC-3 prostate cancer cell line; assay type: cell-based, human
Experimental: as §3

E. coli clin. isolate = assay type: cell-based, Escherichia coli
Text: as §1, §2

[8] = multidrug-resistant clinical isolate, broth microdilution, MH medium, 18-24 h, 37 °C
[9] = broth microdilution, MH medium, 5 × 10^5 CFU/mL, 18-24 h, 37 °C

Row | SMILES | HC10 (human erythrocytes) | HC20 (human erythrocytes) | HC50 (human erythrocytes) | MIC (P. aerug. clin. isolate) (P. aerug. clin. isolate) | MIC (S. aureus clin. isolate) (S. aureus clin. isolate; clin. isolate) | MIC (K. pneum. clin. isolate) (K. pneum. clin. isolate) | MIC (E. coli MG1655) (Escherichia coli MG1655; MG1655) | MIC (S. aureus ATCC 29213) ([1]; ATCC 29213) | MIC (E. coli ATCC 25922) ([2]; ATCC 25922) | MIC (K. pneum. ATCC 13883) ([3]; ATCC 13883) | MIC (P. aerug. ATCC 27853) ([4]; ATCC 27853) | MIC (A. baum. ATCC 19606) ([5]; ATCC 19606) | IC50 ([6]; 24 h) | MIC (A. baum. clin. isolate) (A. baum. clin. isolate) | (TI/ IC50C) vs. MP1 ([7]; 24 h) | IC50 ([7]; 24 h) | TI (HC20/IC20C) ([7]; 24 h) | TI (IC50F/IC50C) ([7]; 24 h) | TI/ IC50C ([7]; 24 h) | MIC (E. coli clin. isolate) (E. coli clin. isolate; clin. isolate) | further results
1 | CC[C@H](C)[C@H](NC(=O)[C@H](CCCCN)NC(=O)[C@H](CCCCN)NC(=O)CNC(=O)[C@@H](NC(=O)[C@@H](N)CCCCN)[C@@H](C)CC)C(=O)N[C@@H](CC(C)C)C(=O)N[C@@H](CCCCN)C(=O)N[C@@H](C)C(=O)N[C@@H](CC(C)C)C(=O)N[C@@H](CCCCN)C(=O)NCC(=O)N[C@@H](C)C(=O)N[C@@H](CC(C)C)C(=O)N[C@@H](CCCCN)C(=O)N[C@@H](CCC(=O)O)C(=O)N[C@@H](CC(C)C)C(=O)N[C@@H](C)C(N)=O [MAPA] (H-KIGKKILKALKGALKELA-NH2) | 1.7 µM | 3 µM | 20 µM | – | – | – | – | – | – | – | – | – | – | – | – | – | – | – | – | – | MIC (P. aerug. clin. isolate) (P. aerug. clin. isolate; [8]): 32 µM (≈ 61.5 µg/mL); MIC (S. aureus clin. isolate) (S. aureus clin. isolate; [8]): 8 µM (≈ 15.4 µg/mL); MIC (K. pneum. clin. isolate) (K. pneum. clin. isolate; [8]): 8 µM (≈ 15.4 µg/mL); MIC (E. coli MG1655) (Escherichia coli MG1655; broth microdilution, LB medium, 5 × 10^5 CFU/mL, 18-24 h, 37 °C, at least three assays): 4 µM (≈ 7.69 µg/mL); MIC (S. aureus ATCC 29213) [1, 9]: 0.5 µM (≈ 0.961 µg/mL); PEa(20) = SI/MIC(aureus) ([1]; overall performance, product of SI (20) and 1/MIC, S. aureus ATCC 29213): 12 µM⁻¹; MIC (E. coli ATCC 25922) ([2]; broth microdilution, MH medium, 5 × 10^5 CFU/mL, 18-24 h, 37 °C, at least three assays): 1 to 2 µM; MIC (K. pneum. ATCC 13883) [3, 9]: 8 µM (≈ 15.4 µg/mL); MIC (P. aerug. ATCC 27853) [4, 9]: 32 to 64 µM; MIC (A. baum. ATCC 19606) [5, 9]: 1 to 2 µM; IC50 ([6]; MTT assay, 7000 cells/well, 24 h treatment, 37 °C, 5% CO2, absorbance 595 nm, read-out: IC50F (Fibroblasts)): 25 µM; MIC (A. baum. clin. isolate) (A. baum. clin. isolate; [8]): 4 µM (≈ 7.69 µg/mL); IC50 ([7]; MTT assay, 7000 cells/well, 24 h treatment, 37 °C, 5% CO2, absorbance 595 nm, read-out: IC50C (PC-3)): 8 µM; TI (HC20/IC20C) ([7]; human erythrocytes vs PC-3): 1; TI/ IC50C ([7]; performance, product of TI and anticancer activity (1/IC50C)): 0.39; (TI/ IC50C) vs. MP1 ([7]; relative performance with respect to MP1 control peptide): 9.3; TI (IC50F/IC50C) ([7]; therapeutic index, fibroblasts vs PC-3): 3.1; MIC (E. coli clin. isolate) (E. coli clin. isolate; multidrug-resistant clinical isolate, broth microdilution, MH medium, 5 × 10^5 CFU/mL, 18-24 h, 37 °C): 8 to 16 µM
2 | CC[C@H](C)[C@H](NC(=O)[C@H](CCCCN)NC(=O)[C@H](CC(C)C)NC(=O)[C@H](C)NC(=O)[C@H](CCCCN)NC(=O)[C@H](CC(C)C)NC(=O)[C@H](C)NC(=O)[C@@H](NC(=O)[C@H](CCCCN)NC(=O)[C@H](C)NC(=O)[C@@H](NC(=O)[C@@H](N)CCCCN)[C@@H](C)CC)C(C)C)C(=O)N[C@@H](C)C(=O)N[C@@H](CCCCN)C(=O)N[C@H](C(=O)N[C@@H](C)C(=O)N[C@@H](CC(C)C)C(=O)N[C@@H](CCCCN)C(=O)N[C@@H](C)C(=O)N[C@@H](CC(C)C)C(N)=O)C(C)C [PG2] (H-KIAKVALKALKIAKVALKAL-NH2) | 3 µM | 14 µM | 18 µM | 6 µM (≈ 12.5 µg/mL) | 1.5 µM (≈ 3.13 µg/mL) | 12 µM (≈ 25.1 µg/mL) | 16 µM (≈ 33.4 µg/mL) | 0.75 µM (≈ 1.57 µg/mL) | 1.5 µM (≈ 3.13 µg/mL) | 3 µM (≈ 6.27 µg/mL) | 6 µM (≈ 12.5 µg/mL) | 1.5 µM (≈ 3.13 µg/mL) | 10 µM | 1.5 to 3 µM | 6.8 | 6 µM | 6 | 1.7 | 0.28 | 6 µM (≈ 12.5 µg/mL) | –
3 | CC[C@H](C)[C@H](NC(=O)[C@H](CCCNC(=N)N)NC(=O)[C@H](C)NC(=O)[C@H](Cc1ccc(O)cc1)NC(=O)[C@H](CCCNC(=N)N)NC(=O)[C@H](CCCNC(=N)N)NC(=O)[C@H](Cc1c[nH]c2ccccc12)NC(=O)[C@H](Cc1c[nH]cn1)NC(=O)[C@H](Cc1c[nH]cn1)NC(=O)[C@@H](N)CCCNC(=N)N)C(=O)NCC(=O)N[C@@H](Cc1ccccc1)C(=O)N[C@@H](CCCNC(=N)N)C(=O)N[C@@H](C)C(=O)N[C@H](C(=O)N[C@@H](CCCNC(=N)N)C(=O)N[C@H](C(=O)N[C@H](C(=O)N[C@H](C(=O)NCC(=O)N[C@@H](CCCCN)C(N)=O)[C@@H](C)CC)C(C)C)[C@@H](C)O)C(C)C [T2R1] (H-RHHWRRYARIGFRAVRTVIGK-NH2) | 3 µM | 25 µM | – | 8 µM (≈ 21.1 µg/mL) | 4 µM (≈ 10.5 µg/mL) | 2 to 4 µM | 4 µM (≈ 10.5 µg/mL) | 0.5 µM (≈ 1.32 µg/mL) | 1 µM (≈ 2.64 µg/mL) | 2 µM (≈ 5.27 µg/mL) | 1 µM (≈ 2.64 µg/mL) | 2 µM (≈ 5.27 µg/mL) | 80 µM | 8 µM (≈ 21.1 µg/mL) | 30 | 8 µM | 5 | 10 | 1.25 | 4 µM (≈ 10.5 µg/mL) | HC50 * (extrapolated) (human erythrocytes; extrapolated, all concentrations tested lysed less than 50% of cells): 7000 * µM; PEa(20) = SI/MIC(aureus) ([1]; ATCC 29213, 18 h): 100 µM⁻¹
